Experimental data published in PubChem BioAssay AID256 (DTP/NCI, 2004).
Values joined by “and” are separate entries in the source; they are usually repeats but may differ in a detail not shown here. Identical values can stand only once. Toxic doses and inconclusive results are not listed.

Test system: CD2F1 mice, L1210 leukemia ip, survival T/C
Test: NCI In Vivo Anticancer Drug Screen. Data for tumor model L1210 Leukemia (intraperitoneal) in CD2F1 (CDF1) mice
Details: higher = longer survival
Method in brief: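 Mice carrying a transplanted tumor received test compound or vehicle alone. The value is the measurement in the treated group divided by that in the vehicle-treated control group.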

O=c1[nH]cc(F)c(=O)[nH]1
T/C (endpoint: mean survival time, dose: 2.5 mg/kg/injection, schedule: Q01DX009 (ip), vehicle: saline): 113 % of control
T/C (endpoint: mean survival time, dose: 3.75 mg/kg/injection, schedule: Q01DX003 (ip), vehicle: saline): 116 % of control
T/C (endpoint: mean survival time, dose: 3.75 mg/kg/injection, schedule: Q01DX005 (ip), vehicle: saline): 114 % of control and 122 % of control
T/C (endpoint: mean survival time, dose: 4.0 mg/kg/injection, schedule: Q03HX016 (ip), vehicle: water): 167 % of control
T/C (endpoint: mean survival time, dose: 4.0 mg/kg/injection, schedule: Q03HX024 (ip), vehicle: water): 153 % of control
T/C (endpoint: mean survival time, dose: 5.0 mg/kg/injection, schedule: Q01DX009 (ip), vehicle: saline): 124 % of control
T/C (endpoint: mean survival time, dose: 7.5 mg/kg/injection, schedule: Q03HX024 (ip), vehicle: saline): 157 % of control
T/C (endpoint: mean survival time, dose: 8.0 mg/kg/injection, schedule: Q01DX009 (ip), vehicle: water): 151 % of control
T/C (endpoint: mean survival time, dose: 8.0 mg/kg/injection, schedule: Q03HX016 (ip), vehicle: water): 154 % of control
T/C (endpoint: mean survival time, dose: 10.0 mg/kg/injection, schedule: Q01DX002 (ip), vehicle: saline): 124 % of control
T/C (endpoint: mean survival time, dose: 10.0 mg/kg/injection, schedule: Q01DX006 (ip), vehicle: saline): 161 % of control
T/C (endpoint: mean survival time, dose: 10.0 mg/kg/injection, schedule: Q03HX016 (ip), vehicle: saline): 152 % of control
T/C (endpoint: mean survival time, dose: 10.8 mg/kg/injection, schedule: Q01DX009 (ip), vehicle: saline): 150 % of control
T/C (endpoint: mean survival time, dose: 12.0 mg/kg/injection, schedule: Q04DX003 (ip), vehicle: saline): 121 % of control
T/C (endpoint: mean survival time, dose: 12.5 mg/kg/injection, schedule: Q03HX024 (oral), vehicle: saline): 122 % of control
T/C (endpoint: mean survival time, dose: 13.3 mg/kg/injection, schedule: Q01DX009 (ip), vehicle: saline sonified): 168 % of control
T/C (endpoint: mean survival time, dose: 14.0 mg/kg/injection, schedule: Q01DX009 (ip), vehicle: saline sonified): 160 % of control
T/C (endpoint: mean survival time, dose: 14.0 mg/kg/injection, schedule: Q01DX009 (ip), vehicle: saline with Tween-80): 157 % of control and 172 % of control
T/C (endpoint: mean survival time, dose: 15.0 mg/kg/injection, schedule: Q01DX005 (ip), vehicle: saline): 158 % of control and 169 % of control
T/C (endpoint: mean survival time, dose: 16.0 mg/kg/injection, schedule: Q01DX009 (oral), vehicle: saline): 114 % of control
T/C (endpoint: mean survival time, dose: 16.0 mg/kg/injection, schedule: Q03HX008 (ip), vehicle: water): 163 % of control
T/C (endpoint: mean survival time, dose: 16.0 mg/kg/injection, schedule: Q03HX024 (ip), vehicle: water): 120 % of control
T/C (endpoint: mean survival time, dose: 20.0 mg/kg/injection, schedule: Q01DX009 (ip), vehicle: saline sonified): 169 % of control
T/C (endpoint: mean survival time, dose: 20.0 mg/kg/injection, schedule: Q03DX003 (ip), vehicle: saline): 152 % of control
T/C (endpoint: mean survival time, dose: 22.5 mg/kg/injection, schedule: Q01DX009 (ip), vehicle: saline): 117 % of control
T/C (endpoint: mean survival time, dose: 25.0 mg/kg/injection, schedule: Q01DX001 (ip), vehicle: saline): 117 % of control
T/C (endpoint: mean survival time, dose: 25.0 mg/kg/injection, schedule: Q03HX024 (oral), vehicle: saline): 118 % of control
T/C (endpoint: mean survival time, dose: 30.0 mg/kg/injection, schedule: Q01DX003 (ip), vehicle: saline): 168 % of control
T/C (endpoint: mean survival time, dose: 30.0 mg/kg/injection, schedule: Q01DX003 (oral), vehicle: saline): 123 % of control
T/C (endpoint: mean survival time, dose: 30.0 mg/kg/injection, schedule: Q01DX005 (oral), vehicle: saline): 119 % of control
T/C (endpoint: mean survival time, dose: 30.0 mg/kg/injection, schedule: Q01DX009 (ip), vehicle: saline sonified): 152 % of control
T/C (endpoint: mean survival time, dose: 30.0 mg/kg/injection, schedule: Q04DX003 (ip), vehicle: saline sonified): 152 % of control
T/C (endpoint: mean survival time, dose: 32.0 mg/kg/injection, schedule: Q04DX003 (ip), vehicle: water): 169 % of control
T/C (endpoint: mean survival time, dose: 32.0 mg/kg/injection, schedule: Q08DX002 (ip), vehicle: water): 154 % of control
T/C (endpoint: mean survival time, dose: 40.0 mg/kg/injection, schedule: Q04DX003 (ip), vehicle: saline sonified): 165 % of control
T/C (endpoint: mean survival time, dose: 40.0 mg/kg/injection, schedule: Q04DX003 (ip), vehicle: saline with Tween-80): 160 % of control and 163 % of control and 172 % of control
T/C (endpoint: mean survival time, dose: 44.0 mg/kg/injection, schedule: Q04DX003 (ip), vehicle: saline): 172 % of control
T/C (endpoint: mean survival time, dose: 50.0 mg/kg/injection, schedule: Q01DX009 (oral), vehicle: saline): 116 % of control
T/C (endpoint: mean survival time, dose: 50.0 mg/kg/injection, schedule: Q03HX008 (oral), vehicle: saline): 122 % of control
T/C (endpoint: mean survival time, dose: 50.0 mg/kg/injection, schedule: Q04DX003 (ip), vehicle: saline): 172 % of control
T/C (endpoint: mean survival time, dose: 60.0 mg/kg/injection, schedule: Q01DX005 (oral), vehicle: saline): 117 % of control
T/C (endpoint: mean survival time, dose: 60.0 mg/kg/injection, schedule: Q03HX024 (ip), vehicle: saline): 164 % of control
T/C (endpoint: mean survival time, dose: 60.0 mg/kg/injection, schedule: Q04DX003 (ip), vehicle: saline sonified): 164 % of control
T/C (endpoint: mean survival time, dose: 60.0 mg/kg/injection, schedule: Q04DX003 (ip), vehicle: saline with Tween-80): 164 % of control
T/C (endpoint: mean survival time, dose: 62.5 mg/kg/injection, schedule: Q01DX001 (oral), vehicle: saline): 113 % of control
T/C (endpoint: mean survival time, dose: 64.0 mg/kg/injection, schedule: Q01DX009 (oral), vehicle: saline): 119 % of control
T/C (endpoint: mean survival time, dose: 64.0 mg/kg/injection, schedule: Q04DX003 (ip), vehicle: water): 160 % of control
T/C (endpoint: mean survival time, dose: 64.0 mg/kg/injection, schedule: Q08DX002 (ip), vehicle: water): 164 % of control
T/C (endpoint: mean survival time, dose: 67.5 mg/kg/injection, schedule: Q04DX003 (ip), vehicle: saline): 150 % of control
T/C (endpoint: mean survival time, dose: 80.0 mg/kg/injection, schedule: Q03HX024 (ip), vehicle: saline): 176 % of control
T/C (endpoint: mean survival time, dose: 80.0 mg/kg/injection, schedule: Q04DX003 (ip), vehicle: saline sonified): 160 % of control
T/C (endpoint: mean survival time, dose: 100.0 mg/kg/injection, schedule: Q08DX002 (oral), vehicle: saline): 151 % of control
T/C (endpoint: mean survival time, dose: 128.0 mg/kg/injection, schedule: Q04DX003 (ip), vehicle: water): 120 % of control
T/C (endpoint: mean survival time, dose: 128.0 mg/kg/injection, schedule: Q08DX002 (ip), vehicle: water): 167 % of control
T/C (endpoint: mean survival time, dose: 132.0 mg/kg/injection, schedule: Q01DX001 (ip), vehicle: saline): 153 % of control
T/C (endpoint: mean survival time, dose: 166.0 mg/kg/injection, schedule: Q01DX001 (ip), vehicle: saline with Tween-80): 150 % of control
T/C (endpoint: mean survival time, dose: 200.0 mg/kg/injection, schedule: Q01DX001 (oral), vehicle: saline): 118 % of control
T/C (endpoint: mean survival time, dose: 200.0 mg/kg/injection, schedule: Q04DX003 (ip), vehicle: saline): 159 % of control
T/C (endpoint: mean survival time, dose: 256.0 mg/kg/injection, schedule: Q08DX002 (ip), vehicle: water): 120 % of control
T/C (endpoint: mean survival time, dose: 300.0 mg/kg/injection, schedule: Q01DX001 (ip), vehicle: saline with Tween-80): 153 % of control
T/C (endpoint: mean survival time, dose: 338.0 mg/kg/injection, schedule: Q01DX001 (ip), vehicle: saline): 150 % of control
T/C (endpoint: mean survival time, dose: 400.0 mg/kg/injection, schedule: Q04DX003 (ip), vehicle: saline with Tween-80): 117 % of control
T/C (endpoint: mean survival time, dose: 400.0 mg/kg/injection, schedule: Q04DX003 (ip), vehicle: saline): 161 % of control
T/C (endpoint: median survival time, dose: 6.48 mg/kg/injection, schedule: Q01DX009 (ip), vehicle: saline): 120 % of control
T/C (endpoint: median survival time, dose: 7.5 mg/kg/injection, schedule: Q01DX009 (ip), vehicle: saline): 153 % of control
T/C (endpoint: median survival time, dose: 7.5 mg/kg/injection, schedule: Q## X009 (ip), vehicle: saline): 153 % of control
T/C (endpoint: median survival time, dose: 10.0 mg/kg/injection, schedule: Q01DX001 (ip), vehicle: saline): 152 % of control
T/C (endpoint: median survival time, dose: 13.0 mg/kg/injection, schedule: Q04DX002 (ip), vehicle: saline): 121 % of control
T/C (endpoint: median survival time, dose: 13.0 mg/kg/injection, schedule: Q04DX003 (ip), vehicle: saline): 121 % of control
T/C (endpoint: median survival time, dose: 14.3 mg/kg/injection, schedule: Q04DX003 (ip), vehicle: saline): 124 % of control
T/C (endpoint: median survival time, dose: 15.0 mg/kg/injection, schedule: Q01DX005 (ip), vehicle: saline): 165 % of control
T/C (endpoint: median survival time, dose: 15.0 mg/kg/injection, schedule: Q01DX009 (ip), vehicle: saline): 167 % of control
T/C (endpoint: median survival time, dose: 15.0 mg/kg/injection, schedule: Q## X009 (ip), vehicle: saline): 167 % of control
T/C (endpoint: median survival time, dose: 20.0 mg/kg/injection, schedule: Q01DX001 (ip), vehicle: saline): 154 % of control
T/C (endpoint: median survival time, dose: 21.6 mg/kg/injection, schedule: Q04DX002 (ip), vehicle: saline): 123 % of control
T/C (endpoint: median survival time, dose: 30.0 mg/kg/injection, schedule: Q01DX009 (ip), vehicle: saline): 173 % of control
T/C (endpoint: median survival time, dose: 36.0 mg/kg/injection, schedule: Q04DX003 (ip), vehicle: saline): 160 % of control and 167 % of control
T/C (endpoint: median survival time, dose: 39.6 mg/kg/injection, schedule: Q04DX003 (ip), vehicle: saline): 164 % of control
T/C (endpoint: median survival time, dose: 40.0 mg/kg/injection, schedule: Q04DX002 (ip), vehicle: saline): 162 % of control
T/C (endpoint: median survival time, dose: 80.0 mg/kg/injection, schedule: Q04DX002 (ip), vehicle: saline): 166 % of control
T/C (endpoint: median survival time, dose: 100.0 mg/kg/injection, schedule: Q04DX003 (ip), vehicle: saline): 151 % of control
T/C (endpoint: median survival time, dose: 300.0 mg/kg/injection, schedule: Q01DX001 (ip), vehicle: Klucel (hydroxypropylcellulose) (HPC)): 174 % of control

O=[N+]([O-])c1ccc2c(c1[N+](=O)[O-])CCCC2
T/C (endpoint: mean survival time, dose: 100.0 mg/kg/injection, schedule: Q01DX001 (ip), vehicle: saline with Tween-80): 104 % of control
T/C (endpoint: mean survival time, dose: 200.0 mg/kg/injection, schedule: Q01DX001 (ip), vehicle: saline with Tween-80): 107 % of control
T/C (endpoint: mean survival time, dose: 400.0 mg/kg/injection, schedule: Q01DX001 (ip), vehicle: saline with Tween-80): 93 % of control
